These results are taken from EPA's ToxRefDB 2.

Data set [1] relates to rat. To be noted: Prenatal developmental toxicity study, sprague dawley, Oral, Gavage/Intubation, dose end: 15 GD.
Data set [2] deals with rat. To be noted: Prenatal developmental toxicity study, sprague dawley, Oral, Gavage/Intubation, dose end: 19 GD.
Data set [3] relates to rat. To be noted: Multigenerational reproductive toxicity study, sprague dawley, Oral, Water, dose end: 3 generation, systemic / pathology microscopic / liver / apoptosis + systemic / pathology microscopic / liver / glycogen deposition.
Data set [4] relates to rat. The settings on record: Peri- and post-natal toxicity study (Segment III), sprague dawley, Oral, Gavage/Intubation, dose end: 5 PND.
For data set [5], the system named is mouse. The settings on record: Prenatal developmental toxicity study, swiss albino, Oral, Gavage/Intubation, dose end: 16 GD.
Data set [6] concerns rat. The settings on record: Prenatal developmental toxicity study, wistar, Injection, Intramuscular, dose end: 15 GD.
Data set [7] has as its system rat. The settings on record: Prenatal developmental toxicity study, sprague dawley, Injection, Intramuscular, dose end: 15 GD.
Data set [8] relates to rat. To be noted: Prenatal developmental toxicity study, sprague dawley, Oral, [Not Specified], dose end: 15 GD.
The subject of data set [9] is rat. To be noted: Prenatal developmental toxicity study, sprague dawley, Injection, Subcutaneous, dose end: 15 GD.
Data set [10] relates to rat. To be noted: Prenatal developmental toxicity study, sprague dawley, Oral, Gavage/Intubation, dose end: 19 GD. The source holds these as a separate data set.
In data set [11] the test system is rat. The settings on record: Prenatal developmental toxicity study, sprague dawley, Oral, Gavage/Intubation, dose end: 19 GD. The source holds these as a separate data set.
For data set [12], the system named is mouse. To be noted: Prenatal developmental toxicity study, other, Oral, Water, dose end: 19 GD.
[13] abbreviates: group: developmental, developmental / developmental malformation / bone / absent + developmental / developmental malformation / bone / bipartite ossification + ….
[14] abbreviates: group: maternal, systemic / pathology gross / liver / enlarged + systemic / in life observation / clinical signs / salivation.
Where [15] appears, read: group: developmental, developmental / developmental malformation / bone / fused cartilage + systemic / in life observation / body weight / fetal weight.
Setting [16] is: group: maternal, systemic / in life observation / body weight / body weight gain + systemic / in life observation / food consumption / food consumption.
The mark [17] stands for this setting: group: maternal, systemic / in life observation / body weight / body weight gain + systemic / in life observation / food consumption / food consumption + ….
The mark [18] stands for this setting: group: developmental, developmental / offspring survival late / viability index / viability index + developmental / developmental landmark / vaginal opening / ….
Setting [19] is: group: maternal, reproductive / offspring survival early / dead fetuses / dead fetuses.
Setting [20] is: group: offspring, systemic / in life observation / body weight / offspring (pup) weight.
[21] abbreviates: group: offspring, systemic / in life observation / body weight / offspring (pup) weight + systemic / organ weight / prostate / absolute + systemic / organ ….
[22] abbreviates: group: developmental, developmental / developmental malformation / general / hemorrhage + developmental / developmental malformation / kidney / dilated renal ….
The mark [23] stands for this setting: group: maternal, reproductive / reproductive performance / implantations / implantations + reproductive / reproductive performance / postimplantation loss / ….
[24] abbreviates: group: developmental, developmental / developmental malformation / bone / wavy + developmental / developmental malformation / heart / membranous ventricular ….
Setting [25] is: group: maternal, reproductive / reproductive performance / postimplantation loss / postimplantation loss.
[26] abbreviates: group: developmental, developmental / developmental malformation / bone / wavy + systemic / in life observation / body weight / fetal weight.
The mark [27] stands for this setting: group: developmental, developmental / developmental malformation / bone / unossified + systemic / in life observation / body weight / fetal weight.
Setting [28] is: group: maternal, systemic / in life observation / body weight / body weight gain + systemic / in life observation / clinical signs / salivation.
[29] abbreviates: group: maternal, systemic / in life observation / body weight / body weight gain + systemic / in life observation / clinical signs / salivation + systemic / ….
Setting [30] is: group: maternal, reproductive / reproductive performance / postimplantation loss / postimplantation loss + reproductive / reproductive performance / ….
Where [31] appears, read: group: developmental, developmental / developmental malformation / bone / delayed ossification + developmental / developmental malformation / bone / exencephaly….
Where [32] appears, read: group: maternal, reproductive / reproductive performance / resorptions / resorptions + systemic / in life observation / body weight / body weight + systemic….

Regarding `C[N+]12CN3CN(CN(C3)C1)C2.[Cl-]`, in the data set on rat [1] (setting [13]), the LEL worked out at 1500 mg/kg/day, the lowest-observed-adverse-effect level (LOAEL) was found to be 1500 mg/kg/day, the NEL was below 1500 mg/kg/day and the NOAEL is below 1500 mg/kg/day. Besides, the lowest-observed-adverse-effect level (LOAEL) with rat [1] (group: maternal, systemic / in life observation / body weight / body weight + systemic / pathology gross / liver / enlarged) stood at 3000 mg/kg/day. Besides, the NOAEL in the data set on rat [1] (group: maternal, systemic / in life observation / body weight / body weight + systemic / pathology gross / liver / enlarged + reproductive / reproductive …) worked out at 1500 mg/kg/day. In the data set on rat [1] (setting [14]), the LEL stood at 1500 mg/kg/day and the NEL is below 1500 mg/kg/day.
In the case of `CC(C)c1ccc2cc(C(C)C)ccc2c1` [2,6-Diisopropylnaphthalene], in the data set with rat [2] (setting [15]), the LEL worked out at 500 mg/kg/day, the LOAEL was 500 mg/kg/day, the NEL was determined as 150 mg/kg/day and the no observed adverse effect level (NOAEL) was 150 mg/kg/day. Besides, in the data set on rat [2] (setting [16]), the LEL was determined as 150 mg/kg/day and the LOAEL is 150 mg/kg/day. In addition, in the data set on rat [2] (setting [17]), the NEL amounted to 50 mg/kg/day and the no observed adverse effect level (NOAEL) worked out at 50 mg/kg/day.
Take `CCCCCCCCc1ccc(O)cc1` [4-Octylphenol]: the LEL stood at 1.25 mg/kg/day in the data set with rat [3] (group: offspring); 1.25 mg/kg/day with rat [3] (group: parental); 50 mg/kg/day in the data set on rat [4] (group: developmental, developmental / developmental landmark / vaginal opening / vaginal opening + developmental / developmental landmark / preputial separation…); 50 mg/kg/day in the data set on rat [4] (setting [19]); 12.5 mg/kg/day in the data set with rat [4] (setting [21]). Further, the LOAEL was above 1.25 mg/kg/day in the data set on rat [3] (group: offspring); above 1.25 mg/kg/day in the data set on rat [3] (group: parental); above 100 mg/kg/day in the data set with rat [4] (setting [18]); above 100 mg/kg/day with rat [4] (setting [19]); 25 mg/kg/day in the data set on rat [4] (setting [20]). Further, the NEL in the data set on rat [3] (group: offspring) is below 1.25 mg/kg/day; with rat [3] (group: parental) it was below 1.25 mg/kg/day; with rat [4] (setting [18]), 25 mg/kg/day; in the data set on rat [4] (setting [19]) it was 25 mg/kg/day; in the data set on rat [4] (setting [21]), below 12.5 mg/kg/day. Moreover, the no observed adverse effect level (NOAEL) in the data set with rat [3] (group: offspring) is at least 1.25 mg/kg/day; with rat [3] (group: parental), at least 1.25 mg/kg/day; with rat [4] (setting [18]), at least 100 mg/kg/day; with rat [4] (setting [19]) it was at least 100 mg/kg/day; with rat [4] (setting [20]) it was 12.5 mg/kg/day.
With `CC(C)OC(=O)C(C)(C)Oc1ccc(C(=O)c2ccc(Cl)cc2)cc1` [Fenofibrate], in the data set on mouse [5] (setting [22]), the LEL stood at 11.7 mg/kg/day, the LOAEL is above 586 mg/kg/day, the NEL was below 11.7 mg/kg/day and the NOAEL is at least 586 mg/kg/day. Besides, in the data set with mouse [5] (setting [23]), the LEL turned out to be 586 mg/kg/day, the lowest-observed-adverse-effect level (LOAEL) was above 586 mg/kg/day, the NEL was 117 mg/kg/day and the no-observed-adverse-effect level (NOAEL) is at least 586 mg/kg/day.
Turning to `OCC(O)CO` [Glycerol], the LEL was 600 mg/kg/day in the data set with rat [6] (setting [24]); 600 mg/kg/day with rat [6] (setting [25]); 300 mg/kg/day with rat [7] (setting [26]); 300 mg/kg/day with rat [7] (setting [25]); 600 mg/kg/day in the data set with rat [8] (setting [24]); 600 mg/kg/day in the data set on rat [8] (setting [25]). The LEL with rat [9] (setting [24]) and in the data set with rat [9] (setting [25]) was 600 mg/kg/day each time. The lowest-observed-adverse-effect level (LOAEL) in the data set on rat [6] (setting [24]) is above 600 mg/kg/day; in the data set on rat [6] (setting [25]) it was above 600 mg/kg/day; with rat [7] (setting [24]), above 1200 mg/kg/day; in the data set on rat [7] (setting [25]) it was above 1200 mg/kg/day; with rat [8] (setting [24]) it was above 1200 mg/kg/day; with rat [8] (setting [25]), above 1200 mg/kg/day. Also, the lowest-observed-adverse-effect level (LOAEL) with rat [9] (setting [24]) and in the data set on rat [9] (setting [25]) was above 600 mg/kg/day throughout. Also, the NEL with rat [6] (setting [24]) was below 600 mg/kg/day; with rat [6] (setting [25]), below 600 mg/kg/day; with rat [7] (setting [26]) it was below 300 mg/kg/day; in the data set on rat [7] (setting [25]), below 300 mg/kg/day; in the data set on rat [8] (setting [24]) it was below 600 mg/kg/day; with rat [8] (setting [25]), below 600 mg/kg/day. Moreover, the NEL in the data set on rat [9] (setting [24]) and in the data set with rat [9] (setting [25]) was below 600 mg/kg/day each time. Besides, the NOAEL was at least 600 mg/kg/day in the data set with rat [6] (setting [24]); at least 600 mg/kg/day in the data set with rat [6] (setting [25]); at least 1200 mg/kg/day in the data set with rat [7] (setting [24]); at least 1200 mg/kg/day in the data set on rat [7] (setting [25]); at least 1200 mg/kg/day in the data set with rat [8] (setting [24]); at least 1200 mg/kg/day in the data set with rat [8] (setting [25]). The no-observed-adverse-effect level (NOAEL) in the data set on rat [9] (setting [24]) and in the data set on rat [9] (setting [25]) was at least 600 mg/kg/day each time.
Regarding `CN=C=S` [Methyl isothiocyanate], in the data set on rat [10] (setting [27]), the LEL was 30 mg/kg/day, the LOAEL was found to be 30 mg/kg/day, the NEL came out at 10 mg/kg/day and the no observed adverse effect level (NOAEL) came out at 10 mg/kg/day. Also, in the data set on rat [10] (setting [28]), the LEL worked out at 10 mg/kg/day and the lowest-observed-adverse-effect level (LOAEL) stood at 10 mg/kg/day. For the same compound, in the data set with rat [10] (setting [29]), the NEL came out at 3 mg/kg/day and the NOAEL came to 3 mg/kg/day.
Turning to `CCC#N` [Propionitrile], the LEL with rat [11] (group: developmental, developmental / developmental malformation / bone / unossified) came out at 40 mg/kg/day. Also, in the data set on rat [11] (setting [27]), the LOAEL was above 80 mg/kg/day, the NEL amounted to 20 mg/kg/day and the no observed adverse effect level (NOAEL) is at least 80 mg/kg/day. Besides, in the data set on rat [11] (setting [30]), the LEL was determined as 80 mg/kg/day, the LOAEL is above 80 mg/kg/day, the NEL amounted to 40 mg/kg/day and the NOAEL was at least 80 mg/kg/day.
In the case of `Cl.Cl.NCCNCCNCCN` [Trientine hydrochloride], in the data set on mouse [12] (setting [31]), the lowest-observed-adverse-effect level (LOAEL) is above 1600 mg/kg/day, the NEL came to 400 mg/kg/day and the NOAEL was at least 1600 mg/kg/day. Moreover, the LEL in the data set with mouse [12] (group: developmental, developmental / developmental malformation / bone / delayed ossification + developmental / developmental malformation / bone / microcephaly…) turned out to be 800 mg/kg/day. For the same compound, in the data set with mouse [12] (setting [32]), the LEL came to 1600 mg/kg/day, the LOAEL is above 1600 mg/kg/day, the NEL worked out at 800 mg/kg/day and the NOAEL is at least 1600 mg/kg/day.
